From PubChem BioAssay AID351 (ChemBlock, 2006)

test system: sea urchin embryo, cleavage alteration, microscopy; assay: sea urchin embryo cleavage alteration, tubulin destabilizer project, whole organism, microscopy (AID 351)

Row | Structure (SMILES) | threshold concentration
1 | COc1cc(N)c(-c2nnc(Nc3ccc4c(c3)OCO4)o2)c(OC)c1 | 50 nM
2 | Nc1ccccc1-c1nnc(Nc2ccc3c(c2)OCCO3)o1 | 1 nM
3 | COc1ccc(-c2c(-c3ccccc3)noc2N)cc1OC | 500 nM
4 | COc1ccc(-c2nnc(-c3ccc(OC)c(OC)c3)o2)cc1OC | 500 nM
5 | c1ccc(-c2nnc(Nc3ccc4c(c3)OCCO4)o2)c(NCc2ccncc2)c1 | 0.5 nM
6 | O=C(Nc1ccc2c(c1)OCCO2)C(=O)c1cn(Cc2ccc(Cl)cc2)c2ccccc12 | 100 nM
7 | COc1ccc(NC(=O)C(=O)c2cn(Cc3ccc(Cl)cc3)c3ccccc23)cc1 | 50 nM
8 | c1cncc(CNc2ccccc2-c2nnc(Nc3ccc4c(c3)OCCO4)o2)c1 | 1 nM
9 | COC(=O)c1[nH]c2ccccc2c1NCc1ccncc1 | 500 nM
10 | Cc1nc2sccn2c1-c1csc(Nc2ccccc2Cl)n1 | 200 nM
11 | COC(=O)Nc1nc2ccc(C(=O)c3cccs3)cc2[nH]1 | 5 nM
12 | COc1ccc(NC(=O)C(=O)c2c[nH]c3ccccc23)cc1 | 1 nM
13 | COc1cc2c(c(OC)c1OC)-c1ccc(OC)c(=O)cc1C(NC(C)=O)CC2 (stereo not given) | 50000 nM
14 | COc1ccc(-c2nnc(Nc3ccc4c(c3)OCCO4)o2)c(N)c1 | 25 nM
15 | Cc1ccc(Nc2nc(-c3c(C)nc4sccn34)cs2)cc1 | 5 nM
16 | Cc1cc(NC(=O)C(=O)c2cn(Cc3ccc(Cl)cc3)c3ccccc23)no1 | 10 nM
17 | c1ccc(-c2nnc(Nc3ccc4c(c3)OCCO4)o2)c(NCc2ccns2)c1 | 2000 nM
18 | Nc1c(C(=O)c2ccccc2)sc2nc3c(cc12)CCCC3 | 20 nM
19 | Nc1csnc1-c1nnc(Nc2ccc(Cl)cc2)o1 | 200 nM
20 | COc1ccc(C2=N[C@H](c3ccc(OC)cc3)[C@H](c3ccc(OC)cc3)N2)cc1 | 500 nM
